Experiment: gradient 5% acetonitrile 3 min, to 50% in 2 min, to 85% in 15 min, held 3 min, 100 µL/min
Settings: column: Zorbax Extend-C18 2.1 x 50 mm; eluents: water / acetonitrile, 0.1% formic acid
In short: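 Retention times of pure standards were taken from adduct peaks that were selected by computer and manually inspected. Over 3 months, mixtures of ~100 molecules were run by HPLC–quadrupole time-of-flight mass spectrometry in positive and negative ionization mode. The Zorbax Extend-C18 column (2.1 × 50 mm, 1.8 μm) ran at 100 μL/min in water and acetonitrile, each containing 0.1% formic acid, with 40 μL dead volume and 900 μL dwell volume.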

| RP-LC retention time [s] | SMILES |
| --- | --- |
| 623 | Cc1cnc(C(=O)N2CCCCCNC(=O)[C@@H]3CCC[C@@H]32)cn1 |
| 760 | COc1ccc(S(=O)(=O)NCCc2cn(C)c3ncccc23)cc1Cl |
| 776 | CSc1cccc(NC(=O)N2CCN(Cc3nc4cc(C)ccc4o3)CC2)c1 |
| 634 | Cc1cnc(C2CC2)n1CCNS(=O)(=O)Cc1ccccc1 |
| 853 | CC(C)NC(=O)N1CCc2c(c(-c3nc(-c4cccc(F)c4)no3)nn2C)C1 |
| 572 | Cc1cc(NCCN(C)C)n2nc(-c3ccccc3)c(C)c2n1 |
| 761 | CN1CCN(CCSC2Cc3cc(Cl)ccc3Sc3ccccc32)CC1 (stereo unspecified) |
| 685 | CCOC(=O)c1ccc(NC(=O)Cn2nc3n(c2=O)CCCCC3)cc1 |
| 860 | Cc1nn(-c2ccccc2)c(C)c1S(=O)(=O)N1CCC(C(=O)NC2CCCC2)CC1 |
| 1050 | O=C(NCc1cccc(Br)c1)C1CCCN(c2nccnc2Oc2ccccc2)C1 (stereo unspecified) |
| 725 | Cn1cc(CC(=O)NCc2cccc(Cl)c2)c2cccnc21 |
| 866 | O=C(NCc1cnoc1-c1ccc(F)cc1)c1ccccc1F |
| 813 | O=C(NCc1ccc(F)cc1)c1ccc2c(c1)CCN2C(=O)C1CC1 |
| 943 | O=C(NCc1ccco1)C1c2ccccc2C(=O)N(Cc2ccccc2)C12CCCC2 (stereo unspecified) |
| 807 | CN(c1ccccc1)S(=O)(=O)c1ccc(C(=O)Nc2nccs2)cc1 |
| 1310 | COc1cccc(N2CCN(S(=O)(=O)c3cc(-c4nc(C(C)C)cs4)cs3)CC2)c1 |
| 804 | Cc1cccc(CN2CCN(C3CCN(C(=O)Nc4ccc5c(c4)OCCO5)CC3)C2=O)c1 |
| 862 | O=C1C(=O)N(C2CCN(S(=O)(=O)c3ccc(F)c(Cl)c3)CC2)CCN1Cc1ccccc1 |
| 947 | O=C(C1c2ccccc2CCN1C(=O)C1CC1)N1CCN(c2ccccc2F)CC1 (stereo unspecified) |
| 1140 | Cc1ccc(NC(=O)c2cc(C)n3nc(C)cc3n2)c(C)c1 |
| 671 | N#CCSc1nnc2sc3ccccc3n12 |
| 1090 | CCCn1c(=O)c(N2CCC(NC(=O)Nc3ccc(Cl)cc3)CC2)nc2ccccc21 |

| RP-LC retention time [s] | SMILES |
| --- | --- |
| 949 | O=c1c2nc(-c3ccc(F)cc3F)cn2ccn1-c1cccc(Cl)c1 |
| 1090 | Cc1ccc(C)c(NC(=O)Cn2c(C)nc3c(sc4nc(-c5ccccc5)ccc43)c2=O)c1 |
| 836 | CCN1C(=O)c2cccnc2Sc2cc(NC(=O)c3ccc(OC)c(F)c3)ccc21 |
| 712 | CN1c2ccccc2C(=O)NC12CCN(C(=O)c1ccccc1F)CC2 |
| 979 | COc1ccc(-c2csc(NC(=O)CSc3nc(C)cc(C)n3)n2)cc1 |
| 1210 | COc1ccccc1CCc1nc(-c2ccc3oc(C)nc3c2)no1 |
| 745 | Cc1c(NC(=O)C(C)C)c(=O)n(-c2ccccc2)n1C |
| 990 | COc1ccc(-c2cc3c(=O)n(Cc4nc(-c5ccccc5OC)oc4C)ccn3n2)cc1OC |
| 715 | Cc1ccc(CN2CCN(C3CCN(C(=O)Nc4ccc5c(c4)OCCO5)CC3)C(=O)C2=O)cc1 |
| 1090 | CC1=C(C(=O)Nc2cccc(Cl)c2C)C2(CCCCCC2)OC1=O |
| 808 | Cc1cccc(NC(=O)N2CCC3(C2)C(=O)N(C)c2ccccc23)c1 (stereo unspecified) |
| 726 | Cc1cccc(CC(=O)NC2CCN(c3cc(-c4cccs4)[nH]n3)C2)c1 (stereo unspecified) |
| 578 | CN(C)c1cccc(C(=O)N2CCc3nc[nH]c3C2)c1 |
| 858 | Cc1cccc(NS(=O)(=O)c2cc3c(s2)CCN(C(=O)C2CC2)C3)c1C |
| 601 | COc1cccc(NC(=O)C2(C)CCCCC(=O)N2)c1 (stereo unspecified) |
| 652 | COc1ccc([C@@H]2CC(=O)c3c(O)cc(O[C@@H]4O[C@H](CO)[C@@H](O)[C@H](O)[C@H]4OC4O[C@@H](C)[C@H](O)[C@@H](O)[C@H]4O)cc3O2)cc1O (stereo partly specified) |
| 623 | CCn1c(-c2ccccc2)nc2ccccc21 |
| 724 | Cc1nnc(NC(=O)Cc2csc(SCC(=O)c3ccc(F)cc3)n2)s1 |
| 774 | CCOC(=O)NCCS(=O)(=O)N1CCN(c2ccccc2F)CC1 |
| 846 | CCOC(=O)c1cc(S(=O)(=O)N2CCCC2C(=O)NCc2ccc(C)o2)cn1C (stereo unspecified) |
| 717 | COc1ccccc1CNC(=O)C1CCN(c2cc(N3CCSCC3)ncn2)CC1 |
| 729 | COC(=O)c1scc(-c2ccccc2)c1S(=O)(=O)N1CCN(c2ccccn2)CC1 |

| RP-LC retention time [s] | SMILES |
| --- | --- |
| 671 | CC(C)N1CCN(C(=O)c2cn(-c3ccc(-c4nc(C(C)(C)C)no4)cn3)cn2)CC1 |
| 730 | O=C(NCc1ccc(Br)cc1)C1CCCN(c2ccnc(-c3ccc(F)cc3)n2)C1 (stereo unspecified) |
| 1220 | Cc1cccc(-c2nnc(-c3cccc(S(=O)(=O)N4CCC(C)CC4)c3)o2)c1 |
| 1320 | CC(C)CN1CCn2cc(S(=O)(=O)Nc3ccccc3F)cc2C1=O |
| 666 | Cc1cc(C)c(C)c(S(=O)(=O)N2CCc3nc[nH]c3C2)c1C |
| 764 | CCc1cc(=O)n(CC(=O)N(C)c2cccc(C)c2)c(N2CCOCC2)n1 |
| 591 | Cc1c(CNCCN(C)C)c(C(=O)O)c(C)n1Cc1ccccc1F |
| 976 | CCOc1ccc(Cc2nc(-c3ccc4c(c3)oc(=O)n4C)no2)cc1OCC |
| 980 | COC(=O)C1=CN(C2CC2)c2cc(N3CCCCCC3)c(F)cc2S1(=O)=O |
| 652 | CN(C)C[C@@H]1CN(c2ccncn2)C[C@H]1NC(=O)c1ccc2ncccc2c1 |
| 1160 | O=S(=O)(c1ccc(-c2noc(-c3ccc(Cl)cc3)n2)cc1)N1CCOCC1 |
| 1010 | CCOCCCNC(=O)c1cnn2c(C(F)(F)F)cc(-c3ccccc3)nc12 |
| 871 | COc1ccc(Cl)cc1NC(=O)Nc1ccc2c(c1)CN(C(=O)C1CC1)CC2 |
| 686 | Cc1ccc(CN2CC(Oc3ccc(-c4noc(C5CCOCC5)n4)cc3)C2)o1 |
| 1060 | COc1cccc(-n2c(=O)c3sccc3n(Cc3nc(-c4ccc(F)c(Cl)c4)no3)c2=O)c1 |
| 790 | CC(NC(=O)Cc1cccn1-c1ccc(Cl)cc1)c1ccccn1 (stereo unspecified) |
| 751 | CCN1C(=O)C(CC(=O)NC(C)c2ccccc2)Sc2ncccc21 (stereo unspecified) |
| 748 | CCCn1cnnc1C1CCCCN1S(=O)(=O)c1cccc(C#N)c1 (stereo unspecified) |
| 796 | CCCN(CC1CCOC1)C(=O)NCc1ccc(C)cc1 (stereo unspecified) |
| 600 | CN1C(=O)[C@H]2CN(Cc3ccccc3Cl)C[C@H]2C1=O |
| 1080 | COc1ccc(-c2nnc(-c3cc(S(=O)(=O)N4CCSCC4)ccc3Cl)o2)cc1 |
| 719 | CNC(=O)N1CCCC(c2cccc(C(=O)NCc3cccs3)c2)C1 (stereo unspecified) |

Source: the METLIN SMRT retention time set (Domingo-Almenara et al. 2019)
